Experimental data published in US6632824B2, “Aryl-8-azabicyclo[3.2.1]octanes for the treatment of depression” (Wyeth, priority 2001, dated 2003).
Where a name gives a salt, the structure may show the parent alone.

Legend:
5-HT transporter = target: T1, 5-HT transporter (Rattus norvegicus, UniProt P31652); experiment: Rat Brain 3H-Paroxetine Binding Assay (RB 5HT Transporter)
T1 construct: frontal cortical membranes prepared from male S.D. rats; from tissue; host or cells: rat frontal cortex membranes (male Sprague-Dawley)
Method: Rat Brain ^3H-Paroxetine Binding Assay (RB 5HT Transporter):
This assay is used to determine a compound's affinity of the 5-HT transporter.
(§1) Briefly, frontal cortical membranes prepared from male S.D. rats are incubated with ^3H-parxetine (0.1 nM) for 60 min. at 25° C. All tubes contain either vehicle, test compound (one to eight concentrations), or a saturating concentration of fluoxetine (10 μM) to define […]. All reactions are terminated by the addition of ice cold Tris buffer followed by rapid filtration using a Tom Tech filtration device to separate bound from free ^3H-paroxetine.

Human 5-HT Transporter = target: T2, Human 5-HT Transporter (Homo sapiens, UniProt P31645); experiment: Inhibition of 3H-5-HT Uptake by Cells Possessing the Human 5-HT Transporter (HC 5HT Transporter); type: cell-based
T2 construct: endogenous in cells; host or cells: JAR human carcinoma cells, treated with staurosporine
Method: On the day of assay, vehicle, excess of fluoxetine, or test compound is added to various wells on the plate. All wells then receive ^3H-5-HT and are incubated at 37° C. for 5 min. The wells are then washed with ice cold 50 mM Tris HCl (pH 7.4) buffer and aspirated to remove free ^3H-5-HT. 25 μl of 0.25 M NaOH is then added to each well to lyse the cells and 75 μl scintillation cocktail (Microscint™ 20) added prior to quantitation on a Packard TopCount machine. Tubes with vehicle represent total possible uptake; radioactivity counted in tubes with fluoxetine represent nonspecific binding/uptake and is subtracted from the total possible uptake to give total possible specific uptake. […] Specific uptake is then expressed as a % of control values and is analyzed using nonlinear regression analysis (Prizm) to determine IC50 values.

human 5-HT1A receptor = target: T3, human 5-HT1A receptor (Homo sapiens, UniProt P08908); experiment: HC 5-HT1A binding assay ([3H]8-OH-DPAT radioligand binding, h5-HT1A.CHO cell membranes)
T3 construct: expressed in transfected cells
T3 sequence (P08908 1-422): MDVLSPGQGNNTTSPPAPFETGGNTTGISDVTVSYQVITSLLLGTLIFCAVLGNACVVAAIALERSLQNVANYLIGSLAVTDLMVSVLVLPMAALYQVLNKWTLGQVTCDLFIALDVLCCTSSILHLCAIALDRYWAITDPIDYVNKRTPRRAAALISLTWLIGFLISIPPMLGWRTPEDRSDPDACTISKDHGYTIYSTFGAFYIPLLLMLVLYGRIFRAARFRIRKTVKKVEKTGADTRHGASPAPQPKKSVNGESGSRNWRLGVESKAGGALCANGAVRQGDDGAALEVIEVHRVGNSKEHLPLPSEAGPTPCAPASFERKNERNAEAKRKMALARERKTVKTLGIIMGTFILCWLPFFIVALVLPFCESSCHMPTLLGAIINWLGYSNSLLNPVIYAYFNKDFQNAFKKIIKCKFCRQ
Method: Cloning of Human 5-HT1A Receptor:
A stable Chinese hamster ovary cell line expressing the human 5-HT1A receptor subtype (h5-HT1A.CHO cells) is employed throughout this study. Cells are maintained in DMEM supplemented with 10% fetal calf serum, non-essential amino acids and penicillin/streptomycin.
Cells are grown to 95-100% confluency as a monolayer before membranes are harvested for binding studies. Cells are gently scraped from the culture plates, transferred to centrifuge tubes, and washed twice by centrifugation (2000 rpm for 10 min., 4° C.) in buffer (50 mM Tris; pH 7.5). The resulting pellets are aliquoted and placed at −80 C. On the day of assay, the cells are thawed on ice, and resuspended in buffer. Studies are conducted using [^3H]8-OH-DPAT as the radioligand. The binding assay is performed in 96-well microtiter plates in a final total volume of […] of buffer. […] Non-specific binding is determined in the presence of 10 μM 5HT. Saturation analysis is conducted by using [^3H]8-OH-DPAT at concentrations ranging from 0.3-30 nM. Following a 30 minute incubation at room temperature, the reaction is terminated by the addition of ice cold buffer and rapid filtration using a M-96 Brandel Cell Harvester (Gaithersburg, Md.) through a GF/B filter presoaked for 30 minutes in 0.5% polyethyleneimine.
^3H-Paroxetine Binding to Assess Affinity of Drugs for the Serotonin Transporter ([…]):
as §1, with “^3H-paroxetine” for “^3H-parxetine”, “min” for “min.”

[1] = target: T4, cloned human 5-HT1A receptors (Homo sapiens, UniProt P08908); experiment: Assessment of agonism/antagonism at the 5-HT1A receptor using [35S]-GTPγS binding; type: biochemical
T4 construct: expressed in transfected cells
T4 sequence (P08908 1-422): T3 sequence (P08908 1-422)
Method: Assessment of Agonism/Antagonism at the 5-HT1A Receptor using [^35S]-GTPγS Binding to Cloned Human 5-HT1A Receptors:
Briefly, 5-HT1A cloned receptor membrane fragments (as used for 5-HT1A receptor binding assays) are stored at −70° C. until needed. When needed, membranes are rapidly thawed, centrifuged at 40,000× g for 10 minutes and resuspended at 4° C. for 10 minutes in assay buffer (25 mM HEPES, 3 mM MgCl2, 100 mM NaCl, 1 mM EDTA, 10 uM GDP, […], pH 8.0). These membranes are then incubated for 30 min at 30° C. with [^35S]GTPgS (1 nM) in the presence of vehicle, test compound (one to eight concentrations), or excess 8-OH-DPAT to define maximum agonist response. All reactions are terminated by the addition of ice cold Tris buffer followed by rapid filtration using a Tom Tech® filtration device to separate bound from free [^35S]GTPgS. Agonists produce an increase in the amount of [^35S]GTPgS bound whereas antagonists produce no increase in binding. Bound radioactivity is counted and analyzed as above.

T1 sequence (P31652 whole entry): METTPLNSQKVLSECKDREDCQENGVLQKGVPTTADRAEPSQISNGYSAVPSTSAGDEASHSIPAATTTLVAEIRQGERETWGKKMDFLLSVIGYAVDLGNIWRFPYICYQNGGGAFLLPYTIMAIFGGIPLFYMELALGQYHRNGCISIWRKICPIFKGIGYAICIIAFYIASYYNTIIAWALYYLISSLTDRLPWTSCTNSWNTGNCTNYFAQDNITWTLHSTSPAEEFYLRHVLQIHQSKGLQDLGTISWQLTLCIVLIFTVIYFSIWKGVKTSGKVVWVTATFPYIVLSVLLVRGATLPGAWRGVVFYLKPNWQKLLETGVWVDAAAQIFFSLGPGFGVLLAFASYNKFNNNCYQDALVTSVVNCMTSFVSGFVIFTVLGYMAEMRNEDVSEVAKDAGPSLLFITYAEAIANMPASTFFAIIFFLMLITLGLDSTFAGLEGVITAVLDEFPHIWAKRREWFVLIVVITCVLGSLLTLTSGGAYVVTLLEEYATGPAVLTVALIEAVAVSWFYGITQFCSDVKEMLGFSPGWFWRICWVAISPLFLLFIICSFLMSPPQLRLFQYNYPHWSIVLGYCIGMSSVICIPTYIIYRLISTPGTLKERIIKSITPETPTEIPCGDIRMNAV
T2 sequence (P31645 whole entry): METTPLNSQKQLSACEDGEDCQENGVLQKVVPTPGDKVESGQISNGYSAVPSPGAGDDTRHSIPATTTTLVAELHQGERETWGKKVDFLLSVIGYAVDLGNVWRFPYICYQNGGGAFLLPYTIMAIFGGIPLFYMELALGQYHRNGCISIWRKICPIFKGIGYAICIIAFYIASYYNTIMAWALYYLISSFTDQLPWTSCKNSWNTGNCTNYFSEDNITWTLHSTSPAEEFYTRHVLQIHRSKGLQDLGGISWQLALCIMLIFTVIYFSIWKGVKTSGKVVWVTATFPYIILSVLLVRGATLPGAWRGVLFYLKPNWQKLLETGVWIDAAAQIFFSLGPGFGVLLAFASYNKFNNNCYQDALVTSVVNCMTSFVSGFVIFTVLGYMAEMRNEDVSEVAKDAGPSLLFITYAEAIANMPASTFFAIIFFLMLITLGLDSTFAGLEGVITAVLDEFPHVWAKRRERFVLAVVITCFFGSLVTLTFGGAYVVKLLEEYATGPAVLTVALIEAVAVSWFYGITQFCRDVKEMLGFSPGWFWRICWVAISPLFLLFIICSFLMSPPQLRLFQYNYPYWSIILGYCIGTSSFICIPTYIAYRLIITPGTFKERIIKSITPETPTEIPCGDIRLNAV

SMILES	melting point	Ki (5-HT transporter) [nM]	IC50 (Human 5-HT Transporter) [nM]	also measured
COc1cc(OCCN2C3C=C(c4ccc5ccccc5c4)CC2CC3)c2ncccc2c1 (stereo not drawn) (as salt: oxalate)	100 to 103 °C	–	–	–
C1=C(c2c[nH]c3ccccc23)CC2CCC1N2CCOc1cccc2ncccc12 (stereo not drawn) (as salt: oxalate) [Example 3, 2-[3-(1H-Indol-3-yl)-8-azabicyclo[3.2.1]oct-2-en-8-yl]ethyl 5-quinolinyl Ether]	91 to 93 °C (dec.)	–	–	–
C1=C(c2ccc3ccccc3c2)CC2CCC1N2CCOc1cccc2c1OCCO2 (stereo not drawn) (as salt: oxalate) [Example 4, 8-[2-(2,3-Dihydro-benzo[1,4]dioxin-5-yloxy)-ethyl]-3-naphthalen-2-yl-8-aza-bicyclo[3.2.1]oct-2-ene]	151 to 153 °C (dec.)	–	–	–
COc1cc(NCCN2C3C=C(c4ccc5ccccc5c4)CC2CC3)c2ncccc2c1 (stereo not drawn) (as salt: oxalate) [Example 5, 6-Methoxy-N-{2-[3-(2-naphthyl)-8-azabicyclo[3.2.1]oct-2-en-8-yl]ethyl}-8-quinolinamine]	179 to 182 °C	–	–	–
COc1ccc2cc(C3=CC4CCC(C3)N4CCOc3cccc4[nH]ccc34)ccc2c1 (stereo not drawn) (as salt: oxalate) [Example 10, 4-{2-[3-(6-Methoxy-naphthalen-2-yl)-8-aza-bicyclo[3.2.1]oct-2-en-8-yl]-ethoxy}-1H-indole]	130 to 132 °C (dec.)	–	–	–
FC(F)(F)c1cccc(OCCN2C3C=C(c4ccc5ccccc5c4)CC2CC3)c1 (stereo not drawn) (as salt: oxalate) [Example 11, 3-Naphthalen-2-yl-8-[2-(3-trifluoromethyl-phenoxy)-ethyl]-8-aza-bicyclo[3.2.1]oct-2-ene]	128 to 130 °C (dec.)	–	–	–
c1ccc2cc(C3CC4CCC(C3)N4CCOc3cccc4[nH]ccc34)ccc2c1 (stereo not drawn) (as salt: oxalate) [Example 12, 4-[2-(3-Naphthalen-2-yl-8-aza-bicyclo[3.2.1]oct-8-yl)-ethoxy]-1H-indole]	119 to 120 °C (dec.)	–	–	–
C1=C(c2c[nH]c3ccccc23)CC2CCC1N2CCOc1cccc2ncccc12 (stereo not drawn) [Example 3, 2-[3-(1H-Indol-3-yl)-8-azabicyclo[3.2.1]oct-2-en-8-yl]ethyl 5-quinolinyl Ether]	–	2.27	86.5	Ki (human 5-HT1A receptor): 173 nM; IC50 [1]: 1170 nM; Emax ([1]; excess 8-OH-DPAT defines maximum agonist response, read-out: [35S]GTPgS Emax): 0%
C1=C(c2ccc3ccccc3c2)CC2CCC1N2CCOc1cccc2c1OCCO2 (stereo not drawn) [Example 4, 8-[2-(2,3-Dihydro-benzo[1,4]dioxin-5-yloxy)-ethyl]-3-naphthalen-2-yl-8-aza-bicyclo[3.2.1]oct-2-ene]	–	0.17	21.7	Ki (human 5-HT1A receptor): 329 nM
COc1cc(NCCN2C3C=C(c4ccc5ccccc5c4)CC2CC3)c2ncccc2c1 (stereo not drawn) [Example 5, 6-Methoxy-N-{2-[3-(2-naphthyl)-8-azabicyclo[3.2.1]oct-2-en-8-yl]ethyl}-8-quinolinamine]	–	2.67	42.8	–
Clc1cc(NCCN2C3C=C(c4ccc5ccccc5c4)CC2CC3)c2ncccc2c1 (stereo not drawn) [Example 6, 6-Chloro-N-{2-[3-(2-naphthyl)-8-azabicyclo[3.2.1]oct-2-en-8-yl]ethyl}-8-quinolinamine]	205 to 206 °C	7.5	–	–
C1=C(c2ccc3ccccc3c2)CC2CCC1N2CCNc1cccc2cccnc12 (stereo not drawn) [Example 7, N-{2-[3-(2-Naphthyl)-8-azabicyclo[3.2.1]oct-2-en-8-yl]ethyl}-8-quinolinamine]	199 to 200 °C	1.61	–	–
COc1ccc2cc(C3=CC4CCC(C3)N4CCOc3cccc4[nH]ccc34)ccc2c1 (stereo not drawn) [Example 10, 4-{2-[3-(6-Methoxy-naphthalen-2-yl)-8-aza-bicyclo[3.2.1]oct-2-en-8-yl]-ethoxy}-1H-indole]	–	1.11	58.6	–
FC(F)(F)c1cccc(OCCN2C3C=C(c4ccc5ccccc5c4)CC2CC3)c1 (stereo not drawn) [Example 11, 3-Naphthalen-2-yl-8-[2-(3-trifluoromethyl-phenoxy)-ethyl]-8-aza-bicyclo[3.2.1]oct-2-ene]	–	34	191	–
c1ccc2cc(C3CC4CCC(C3)N4CCOc3cccc4[nH]ccc34)ccc2c1 (stereo not drawn) [Example 12, 4-[2-(3-Naphthalen-2-yl-8-aza-bicyclo[3.2.1]oct-8-yl)-ethoxy]-1H-indole]	–	0.39	35.7	–
c1ccc2cc(C3CC4CCC(C3)N4CCOc3cccc4cccnc34)ccc2c1 (stereo not drawn) [Example 17, 8-{2-[3-(2-Naphthyl)-8-azabicyclo[3.2.1]oct-8-yl]ethoxy}quinoline]	110 to 113 °C	0.13	–	–
c1ccc2cc(C3CC4CCC(C3)N4CCSc3cccc4cccnc34)ccc2c1 (stereo not drawn) [Example 18, 8-({2-[3-(2-Naphthyl)-8-azabicyclo[3.2.1]oct-8-yl]ethyl}sulfanyl)quinoline]	200 to 203 °C	0.06	3.5	Ki (human 5-HT1A receptor): 256 nM
